In this assay the target is T1, proteasome (Rattus norvegicus, UniProt P28073+P28075+Q9JHW0).
T1 construct: gene Psmb5; native, not purified; soluble fraction (100,000 g supernatant) of liver, brain or lens homogenate; 20S/26S and immunoproteasome content not resolved; with Proteasome subunit beta type-1; Proteasome subunit beta type-2; Proteasome subunit beta type-3; Proteasome subunit beta type-4; Proteasome subunit alpha type-1; Proteasome subunit alpha type-2; Proteasome subunit alpha type-3; Proteasome subunit alpha type-4; Proteasome subunit alpha type-5; Proteasome subunit alpha type-6; Proteasome subunit alpha type-7
Nature of the assay: fluorogenic AMC release, Lineweaver-Burk plot. Format: biochemical. The settings on record: liver soluble fraction, Tris pH 7.5, EDTA, 2 mM DTT, 37°C, per-animal values versus age, brain and lens in Figures 2 and 3.

Starred links: 1 amine or outer side, 2 acyl side, 3 side chain; linkers in the order of their positions; H or OH if unused. Residues, ends and D or L forms follow the SMILES beside them. *: point of attachment. AMC = Cc1cc(=O)oc2cc(N*)ccc12; Suc = O=C(CCC(=O)[*:2])[*:1]; Cbz = O=C(OCc1ccccc1)*; Boc = CC(C)(C)OC(=O)*

The values below come from PMC2850129, “Changes in Activity and Kinetic Properties of the Proteasome in Different Rat Organs during Development and Maturation” (Current Gerontology and Geriatrics Research, 2010).

In the case of `Cc1cc(=O)oc2cc(NC(=O)[C@H](CCCNC(=N)N)NC(=O)CNC(=O)[C@@H](NC(=O)OC(C)(C)C)C(C)C)ccc12` [VGR, Boc-Val-Gly-Arg-AMC] (Boc-Val-Gly-Arg-{AMC}), the K m entry (trypsin-like site (beta2)) is recorded as “Michaelis-Menten constants (K m) of the proteasome in rat liver versus age”.

For the compound `Cc1cc(=O)oc2cc(NC(=O)[C@H](Cc3ccc(O)cc3)NC(=O)[C@@H](NC(=O)[C@H](CC(C)C)NC(=O)[C@H](CC(C)C)NC(=O)CCC(=O)O)C(C)C)ccc12` [LLVY, Suc-Leu-Leu-Val-Tyr-AMC] (Suc-LLVY-{AMC}), the K m entry (chymotrypsin-like site (beta5)) is listed as “Michaelis-Menten constants (K m) of the proteasome in rat liver versus age”.

Regarding `Cc1cc(=O)oc2cc(NC(=O)[C@H](CCC(=O)O)NC(=O)[C@H](CC(C)C)NC(=O)[C@H](CC(C)C)NC(=O)OCc3ccccc3)ccc12` [LLE, Z-Leu-Leu-Glu-AMC] (Cbz-Leu-Leu-Glu-{AMC}), for the setting “peptidylglutamyl peptidase site (beta1)”, the K m result was “Michaelis-Menten constants (K m) of the proteasome in rat liver versus age”.
